Among the data in patent US9073876B2, “Flap modulators” (JANSSEN PHARMACEUTICA NV, priority 2013, dated 2015) are Ki and IC50 values, retold here.

In one experiment the target is human FLAP (Homo sapiens (Human), UniProt P20292). Nature of the experiment: FLAP binding assay (HTRF). The following applies: human FLAP-containing membranes, HTRF format; average of two assay plates, duplicates; read-out: FLAP Binding wild type HTRF Ki. A digest of the protocol: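 Binding values are averages from two separate assay plates, with each sample run in duplicate per plate. Data are expressed as an HTRF ratio.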
Sequence of human FLAP (P20292 whole entry): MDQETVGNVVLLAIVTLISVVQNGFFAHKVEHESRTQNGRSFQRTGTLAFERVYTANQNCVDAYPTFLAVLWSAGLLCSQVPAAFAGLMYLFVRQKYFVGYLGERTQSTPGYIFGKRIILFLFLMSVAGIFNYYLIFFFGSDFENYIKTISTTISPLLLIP

Experiment [1] relates to leukotriene pathway in human whole blood (LTB4 levels). Nature of the experiment: Human whole blood assay (LTB4). It is filed as cell-based. The following applies: human whole blood diluted 1:1 in RPMI, stimulated with calcium ionophore A23187; single replicate. In outline: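 Heparinised human whole blood diluted 1:1 in RPMI, pre-incubated 15 min at 37° Celsius with compound, then stimulated with A23187 (7 μg/mL) for 30 min at 37° Celsius. Plasma LTB4 measured by immunoassay kit; IC50 from 4-parameter fit; single replicate per plate, at least one healthy donor.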

In the case of `Nc1cnc(-c2ccc(C3CCC3)c(O)c2F)cn1` [B, 3-(5-Aminopyrazin-2-yl)-6-cyclobutyl-2-fluorophenol], the Ki on human FLAP turned out to be 354 nM. In experiment [1], the IC50 came to 960 nM.

Regarding `N#Cc1ccc(COc2c(C3CCC3)ccc(-c3cnc4c(c3)OCCN4)c2F)cc1` [Example 190, 4-{[6-Cyclobutyl-3-(3,4-dihydro-2H-pyrido[3,2-b][1,4]oxazin-7-yl)-2-fluorophenoxy]-methyl}-benzonitrile], on human FLAP, the Ki is 47.2 nM. In addition, the half-inhibitory concentration (IC50) in experiment [1] is 1060 nM.

`Nc1cnc(Oc2c(C3CCC3)ccc(-c3cnc(N)cn3)c2F)nc1` [Example 158, 2-[3-(5-Aminopyrazin-2-yl)-6-cyclobutyl-2-fluorophenoxy]pyrimidin-5-amine]: the Ki at human FLAP came to 7.8 nM. For the same compound, in experiment [1], the IC50 was found to be 35.9 nM.

On to `COCc1cc(Oc2c(C3CCC3)ccc(-c3cnc(N)nc3)c2F)nc(N)n1` [Example 162, 4-[3-(2-Aminopyrimidin-5-yl)-6-cyclobutyl-2-fluorophenoxy]-6-(methoxymethyl)pyrimidin-2-amine], for which the Ki on human FLAP came to 7.2 nM. Moreover, the IC50 in experiment [1] is 124 nM.

Turning to `Nc1cnc(-c2ccc(C3CCC3)c(OCC(O)Cn3ncccc3=O)c2F)cn1` (racemic) [Example 53, racemic 2-(3-(3-(5-Aminopyrazin-2-yl)-6-cyclobutyl-2-fluorophenoxy)-2-hydroxypropyl)pyridazin-3(2H)-one], the Ki at human FLAP came out at 138 nM. The IC50 in experiment [1] is 645 nM.

As to `Nc1cnc(-c2ccc(C3CCC3)c(Oc3cnccn3)c2F)cn1` [Example 259, 5-(4-Cyclobutyl-2-fluoro-3-(pyrazin-2-yloxy)phenyl)pyrazin-2-amine], on human FLAP, the Ki is 7 nM. Further, in experiment [1], the IC50 is 134 nM.

`Nc1cnc(-c2ccc(C3CCC3)c(OCc3cccc(C(=O)O)c3)c2F)cn1` [Example 4, 3-{[3-(5-Aminopyrazin-2-yl)-6-cyclobutyl-2-fluorophenoxy]methyl}benzoic acid]: at human FLAP, the Ki came out at 4 nM. Also, the IC50 in experiment [1] came out at 298 nM.

Consider `Nc1cnc(-c2ccc(C3CCC3)c(OCc3cccc(Cl)c3)c2F)cn1` [Example 35, 5-{3-[(3-Chlorobenzyl)oxy]-4-cyclobutyl-2-fluorophenyl}pyrazin-2-amine], for which the Ki at human FLAP was found to be 173 nM. Moreover, the IC50 in experiment [1] is 1140 nM.

Regarding `Nc1cnc(-c2ccc(C3CCC3)c(OCc3ccc(Cl)cc3)c2F)cn1` [Example 36, 5-{3-[(4-Chlorobenzyl)oxy]-4-cyclobutyl-2-fluorophenyl}pyrazin-2-amine], at human FLAP, the Ki turned out to be 220 nM. The IC50 in experiment [1] is 2540 nM.

On to `Nc1cnc(-c2ccc(C3CCC3)c(OCc3c(Cl)cccc3Cl)c2F)cn1` [Example 37, 5-{4-Cyclobutyl-3-[(2,6-dichlorobenzyl)oxy]-2-fluorophenyl}pyrazin-2-amine], for which the Ki on human FLAP was determined as 250 nM. In addition, the IC50 in experiment [1] came to 2500 nM.

Consider `Nc1cnc(-c2ccc(C3CCC3)c(Oc3ccnc(Oc4c(C5CCC5)ccc(-c5cnc(N)cn5)c4F)n3)c2F)cn1` [Example 224, 5,5′-((pyrimidine-2,4-diylbis(oxy))bis(4-cyclobutyl-2-fluoro-3,1-phenylene))bis(pyrazin-2-amine)], for which, at human FLAP, the inhibition constant (Ki) came to 23.2 nM. In addition, the IC50 in experiment [1] turned out to be 287 nM.

`Nc1cnc(-c2ccc(C3CCC3)c(Oc3cc(N)nc(Cc4ccccc4)n3)c2F)cn1` [Example 146, 6-[3-(5-Aminopyrazin-2-yl)-6-cyclobutyl-2-fluorophenoxy]-2-benzylpyrimidin-4-amine]: at human FLAP, the Ki amounted to 0.4 nM. Moreover, the IC50 in experiment [1] was 4.5 nM.

As to `Nc1cnc(-c2ccc(C3CCC3)c(Oc3ccnc(Cl)n3)c2F)cn1` [Example 137, 5-{3-[(2-Chloropyrimidin-4-yl)oxy]-4-cyclobutyl-2-fluorophenyl}pyrazin-2-amine], the Ki on human FLAP turned out to be 3.7 nM. Besides, the IC50 in experiment [1] came to 51 nM.

In the case of `CC(C)(C)c1cc(Oc2c(C3CCC3)ccc(-c3cnc(N)cn3)c2F)nc(N)n1` [Example 240, 4-(3-(5-aminopyrazin-2-yl)-6-cyclobutyl-2-fluorophenoxy)-6-(tert-butyl)pyrimidin-2-amine], the Ki at human FLAP is 23.6 nM. Also, in experiment [1], the IC50 came to 104 nM.

Take `Fc1c(-c2cnc3[nH]ccc3n2)ccc(C2CCC2)c1Oc1ncccn1` [Example 230, 2-(4-cyclobutyl-2-fluoro-3-(pyrimidin-2-yloxy)phenyl)-5H-pyrrolo[2,3-b]pyrazine]: the Ki on human FLAP was determined as 2.5 nM. Moreover, the IC50 in experiment [1] turned out to be 238 nM.

In the case of `COc1ccc(S(F)(F)(F)(F)F)cc1COc1c(C2CCC2)ccc(-c2cnc(N)cn2)c1F` [Example 76, 5-(4-Cyclobutyl-2-fluoro-3-{[2-methoxy-5-(pentafluoro-lambda~6~- sulfanyl)benzyl]oxy}phenyl)pyrazin-2-amine], the Ki at human FLAP worked out at 250 nM. Further, the IC50 in experiment [1] was determined as 1770 nM.

For the compound `Cc1csc2ncnc(Oc3c(C4CCC4)ccc(-c4cnc(N)cn4)c3F)c12` [Example 331, 5-(4-Cyclobutyl-2-fluoro-3-((5-methylthieno[2,3-d]pyrimidin-4-yl)oxy)phenyl)pyrazin-2-amine], the Ki at human FLAP was determined as 3.7 nM. Further, the IC50 in experiment [1] came out at 12.9 nM.

On to `Nc1cnc(-c2ccc(C3CCC3)c(OCC(O)CN3CCOCC3)c2F)cn1` (racemic) [Example 255, 1-(3-(5-aminopyrazin-2-yl)-6-cyclobutyl-2-fluorophenoxy)-3-morpholinopropan-2-ol], for which, on human FLAP, the inhibitory constant (Ki) was found to be 1140 nM. Further, the IC50 in experiment [1] was 1140 nM.

For the compound `Nc1cnc(-c2ccc(C3CCC3)c(OCC(O)CNc3cncnc3)c2F)cn1` (racemic) [Example 55, racemic 1-(3-(5-Aminopyrazin-2-yl)-6-cyclobutyl-2-fluorophenoxy)-3-(pyrimidin-5-ylamino)propan-2-ol], the Ki at human FLAP amounted to 152 nM. Further, the IC50 in experiment [1] was found to be 555 nM.

On to `NC(=O)c1ncc(Oc2c(C3CCC3)ccc(-c3cnc(N)cn3)c2F)cn1` [Example 329, 5-(3-(5-Aminopyrazin-2-yl)-6-cyclobutyl-2-fluorophenoxy)pyrimidine-2-carboxamide], for which the Ki on human FLAP was determined as 9.7 nM. Also, the IC50 in experiment [1] amounted to 39 nM.

As to `CN(C)c1cc(Oc2c(C3CCC3)ccc(-c3cnc(N)cn3)c2F)nc(C(F)(F)F)n1` [Example 139, 6-[3-(5-Aminopyrazin-2-yl)-6-cyclobutyl-2-fluorophenoxy]-N,N-dimethyl-2-(trifluoromethyl)pyrimidin-4-amine], the inhibition constant (Ki) at human FLAP worked out at 3.9 nM. Besides, the IC50 in experiment [1] turned out to be 48.5 nM.

As for `CCc1ccc(-c2cnc(N)cn2)c(F)c1Oc1nccc(N)n1` [Example 317, 2-[3-(5-Aminopyrazin-2-yl)-6-ethyl-2-fluorophenoxy]pyrimidin-4-amine], the Ki on human FLAP was 198 nM. The IC50 in experiment [1] was 464 nM.

For `Nc1cnc(-c2ccc(C3CCC3)c(OCC3CC3)c2F)cn1` [Example 72, 5-[4-Cyclobutyl-3-(cyclopropylmethoxy)-2-fluorophenyl]pyrazin-2-amine], the Ki on human FLAP was 18 nM. Moreover, the IC50 in experiment [1] was 737 nM.

For the compound `Nc1cnc(-c2ccc(C3CCC3)c(Oc3nccc(C(=O)O)n3)c2F)cn1` [Example 152, 2-[3-(5-Aminopyrazin-2-yl)-6-cyclobutyl-2-fluorophenoxy]pyrimidine-4-carboxylic acid], the Ki at human FLAP stood at 62.5 nM. Besides, in experiment [1], the IC50 is more than 10000 nM.

As for `Cc1cc(Oc2c(C3CCC3)ccc(-c3cnc(N)cn3)c2F)nc(N)n1` [Example 96, 4-[3-(5-aminopyrazin-2-yl)-6-cyclobutyl-2-fluorophenoxy]-6-methylpyrimidin-2-amine], the Ki on human FLAP worked out at 7 nM. Also, the IC50 in experiment [1] stood at 33.8 nM.
